Experimental data: patent EP0745595A1, “3-(3-Aryloxyphenyl)-1-(substituted methyl)-s-triazine-2,4,6-oxo or thiotrione herbicidal agents” (American Cyanamid Company, priority 1995, dated 1996)

Legend:
Type in all cases: in vivo
IPOMOEA SPP. = test: Preemergence herbicidal evaluation, IPOSS (Morningglory spp.); details: rated four to five weeks after treatment
Text: (§1) Results of herbicide evaluation are expressed on a rating scale (0-9). The scale is based upon a visual observation of plant stand, vigor, malformation, size, chlorosis and overall plant appearance as compared with a control.
(§2) The preemergence herbicidal activity of the test compounds of the present invention is exemplified by the following tests in which the seeds of a variety of monocotyledonous and dicotyledonous plants are separately mixed with potting soil and planted on top of approximately one inch of soil in separate pint cups. […] The treated cups are then placed on greenhouse benches, watered and cared for in accordance with conventional greenhouse procedures. From four to five weeks after treatment, the tests are terminated and each cup is examined and rated according to the rating system provided in Example 40.
(§3) The compounds evaluated are reported by compound number given in Example 40.

CYPERUS IRIA = test: Preemergence weed control under flooded paddy conditions, CYPIR (Rice Flatsedge); details: 0.500 kg/ha, preemergence, 3-4 weeks after treatment
Method in brief: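 Seeds or propagating organs of rice flatsedge were planted in the top 0.5 cm of silt loam soil in 32 oz. plastic containers, 10.5 cm across and without drainage holes. Water was kept 1.5 to 3 cm above the soil throughout. Treated containers were kept on greenhouse benches, and herbicidal effect was visually rated on a 0-9 scale against a control.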

[1] = tested on: AMBROSIA ARTEMISIIFOLIA, L.; test: Postemergence herbicidal evaluation, AMBEL (Ragweed, Common)
Method in brief: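 Common ragweed (Ambrosia artemisiifolia) seedlings were raised in jiffy flats for roughly two weeks, then sprayed postemergence through a nozzle at 40 psi with the test compound dispersed in 50/50 acetone/water carrying 0.5% TWEEN®20. The plants were kept on greenhouse benches under conventional care. Four to five weeks later, injury was rated visually on a 0-9 scale, and repeat tests were averaged.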

[2] = tested on: ECHINOCHLOA ORYZOIDES (ARD.)FRITSCH; test: Preemergence weed control under flooded paddy conditions, ECHORC (Watergrass (Calif.)); details: 0.500 kg/ha, preemergence, 3-4 weeks after treatment
Method in brief: (§4)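 Seeds or propagules were planted 0.5 cm deep in silt loam, with flood water held at 1.5 to 3 cm. Compound in 50/50 aqueous/acetone was pipetted into the flood water at about 0.5, 0.25, 0.125 and 0.063 kg/ha. Injury was rated visually on a 0-9 scale against a control 3-4 weeks after treatment.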

[3] = tested on: SETARIA VIRIDIS, (L) BEAU; test: Postemergence herbicidal evaluation, SETVI (Foxtail, Green); parameters: key to SETVI rating / Herbicidal effect rating, SETVI / SETVI: 0-9 visual rating scale vs untreated control
Method in brief: (§5)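 Two-week-old seedlings sprayed with compound in 50/50 acetone/water plus 0.5% TWEEN 20 at about 0.125–0.500 kg/ha via nozzle at 40 psi. Kept in greenhouse; rated visually 4–5 weeks after treatment on a 0–9 scale versus untreated control, averaging repeat tests.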

[4] = tested on: SETARIA VIRIDIS, (L) BEAU; test: Preemergence herbicidal evaluation, SETVI (Foxtail, Green); details: rated four to five weeks after treatment
Text: as §1, §2, §3

[5] = tested on: ECHINOCHLOA CRUS-GALLI, (L) BEAU; test: Postemergence herbicidal evaluation, ECHCG (Barnyardgrass); parameters: key to ECHCG rating / Herbicidal effect rating, ECHCG / ECHCG: 0-9 visual rating scale vs untreated control
Method in brief: as §5

SAGITTARIA PYGMAEA, L. = test: Preemergence weed control under flooded paddy conditions, SAGPY (Arrowhead (Pygmaea)); details: 0.500 kg/ha, preemergence, 3-4 weeks after treatment
Method in brief: as §4

[6] = tested on: GLYCINE MAX(L) MERR. CV. WILLIAMS; test: Preemergence herbicidal evaluation, GLXMAW (Soybean, Williams); details: rated four to five weeks after treatment
Method in brief: (§6)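 Seeds mixed with potting soil were planted on about one inch of soil in cups, then sprayed with aqueous acetone solution of test compound at about 0.125 to 0.50 kg per hectare. Plants grown under greenhouse conditions; visual rating on a 0-9 scale versus untreated control at 4-5 weeks.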

CASSIA OBTUSIFOLIA, L. [7] = test: Postemergence herbicidal evaluation, CASOB (Sicklepod); parameters: key to CASOB rating / Herbicidal effect rating, CASOB / CASOB: 0-9 visual rating scale vs untreated control
Method in brief: as §5

[8] = tested on: CYPERUS SEROTINUS, ROTTB.; test: Preemergence weed control under flooded paddy conditions, CYPSE (Flatsedge); details: 0.500 kg/ha, preemergence, 3-4 weeks after treatment
Method in brief: as §4

[9] = tested on: ABUTILON THEOPHRASTI, MEDIC.; test: Preemergence herbicidal evaluation, ABUTH (Velvetleaf); details: rated four to five weeks after treatment
Text: as §1, §2, §3

[10] = tested on: ORYZA SATIVA, L. TEBONNET; test: Rice tolerance to post-transplant applications under flooded paddy conditions, ORYSAT (Rice, Tebonnet); details: 0.500 kg/ha, post-transplant rice, 3-4 weeks after treatment
Method in brief: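 Two ten-day-old Tebonnet rice seedlings transplanted into silt loam, flooded 1.5–3 cm; three days later the water surface treated with compounds in acetone/water at about 0.5, 0.25, 0.125 and 0.063 kg/ha. Visual 0–9 injury rating versus control after 3–4 weeks in greenhouse.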

[…], PRESL. = Preemergence weed control under flooded paddy conditions, MOOVA (Monochoria); details: 0.500 kg/ha, preemergence, 3-4 weeks after treatment
Method in brief: as §4

[11] = tested on: TRITICUM AESTIVUM, CV. APOLLO; test: Preemergence herbicidal evaluation, TRZAWO (Wheat, Winter, CV. APOLLO); details: rated four to five weeks after treatment
Method in brief: as §6

[12] = tested on: ECHINOCHLOA CRUS-GALLI, (L) BEAU; test: Preemergence herbicidal evaluation, ECHCG (Barnyardgrass); details: rated four to five weeks after treatment
Method in brief: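 Barnyardgrass seeds were mixed with potting soil and planted on about one inch of soil in pint cups for preemergence testing. Treated cups were kept on greenhouse benches, watered and maintained by standard greenhouse practice. After four to five weeks, each cup was visually rated on a 0-9 scale against an untreated control.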

[13] = tested on: AMBROSIA ARTEMISIIFOLIA, L.; test: Preemergence herbicidal evaluation, AMBEL (Ragweed, Common); details: rated four to five weeks after treatment
Method in brief: as §6

CASSIA OBTUSIFOLIA, L. [14] = test: Preemergence herbicidal evaluation, CASOB (Sicklepod); details: rated four to five weeks after treatment
Method in brief: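 Seeds of various monocot and dicot plants, including sicklepod, were each mixed with potting soil and sown on roughly one inch of soil in separate pint cups for preemergence testing. Treated cups were kept on greenhouse benches, watered and maintained conventionally. Four to five weeks after treatment, each cup was visually rated on a 0-9 scale against a control.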

Structure (SMILES): Cn1c(=O)n(CC(N)=O)c(=O)n(-c2cccc(Oc3ccc(C(F)(F)F)cc3Cl)c2)c1=O [Compound 46, 3-{5-[(2-Chloro-α,α,α-trifluoro-p-tolyl)-oxy]phenyl}tetrahydro-5-methyl-2,4,6-trioxo-s-triazine-1(2H)-acetamide]
- IPOSS herbicidal rating (IPOMOEA SPP.; Rate 0.125 kg/ha): 0.0
- IPOSS herbicidal rating (IPOMOEA SPP.; Rate 0.250 kg/ha): 0.0
- IPOSS herbicidal rating (IPOMOEA SPP.; Rate 0.500 kg/ha): 0.0
- Herbicidal effect rating, CYPIR (CYPERUS IRIA): 0.0
- AMBEL rating ([1]; Rate 0.125 kg/ha): 0.0
- AMBEL rating ([1]; Rate 0.250 kg/ha): 0.0
- AMBEL rating ([1]; Rate 0.500 kg/ha): 0.0
- Herbicidal effect rating, ECHORC [2]: 0.0
- SETVI rating ([3]; Rate 0.125 kg/ha): 0.0
- SETVI rating ([3]; Rate 0.250 kg/ha): 0.0
- SETVI rating ([3]; Rate 0.500 kg/ha): 0.0
- SETVI herbicidal rating ([4]; Rate 0.125 kg/ha): 0.0
- SETVI herbicidal rating ([4]; Rate 0.250 kg/ha): 0.0
- SETVI herbicidal rating ([4]; Rate 0.500 kg/ha): 0.0
- ECHCG rating ([5]; Rate 0.125 kg/ha): 0.0
- ECHCG rating ([5]; Rate 0.250 kg/ha): 0.0
- ECHCG rating ([5]; Rate 0.500 kg/ha): 0.0
- Herbicidal effect rating, SAGPY (SAGITTARIA PYGMAEA, L.): 0.0
- GLXMAW herbicidal rating ([6]; Rate 0.125 kg/ha): 1.0
- GLXMAW herbicidal rating ([6]; Rate 0.250 kg/ha): 1.0
- GLXMAW herbicidal rating ([6]; Rate 0.500 kg/ha): 1.0
- CASOB rating (CASSIA OBTUSIFOLIA, L. [7]; Rate 0.125 kg/ha): 0.0
- CASOB rating (CASSIA OBTUSIFOLIA, L. [7]; Rate 0.250 kg/ha): 0.0
- CASOB rating (CASSIA OBTUSIFOLIA, L. [7]; Rate 0.500 kg/ha): 0.0
- Herbicidal effect rating, CYPSE [8]: 0.0
- ABUTH herbicidal rating ([9]; Rate 0.125 kg/ha): 0.0
- ABUTH herbicidal rating ([9]; Rate 0.250 kg/ha): 0.0
- ABUTH herbicidal rating ([9]; Rate 0.500 kg/ha): 0.0
- Herbicidal effect rating, ORYSAT [10]: 0.0
- Herbicidal effect rating, MOOVA ([…], PRESL.): 0.0
- TRZAWO herbicidal rating ([11]; Rate 0.125 kg/ha): 1.0
- TRZAWO herbicidal rating ([11]; Rate 0.250 kg/ha): 1.0
- TRZAWO herbicidal rating ([11]; Rate 0.500 kg/ha): 1.0
- ECHCG herbicidal rating ([12]; Rate 0.125 kg/ha): 0.0
- ECHCG herbicidal rating ([12]; Rate 0.250 kg/ha): 0.0
- ECHCG herbicidal rating ([12]; Rate 0.500 kg/ha): 0.0
- AMBEL herbicidal rating ([13]; Rate 0.125 kg/ha): 0.0
- AMBEL herbicidal rating ([13]; Rate 0.250 kg/ha): 0.0
- AMBEL herbicidal rating ([13]; Rate 0.500 kg/ha): 0.0
- CASOB herbicidal rating (CASSIA OBTUSIFOLIA, L. [14]; Rate 0.125 kg/ha): 0.0
- CASOB herbicidal rating (CASSIA OBTUSIFOLIA, L. [14]; Rate 0.250 kg/ha): 0.0
- CASOB herbicidal rating (CASSIA OBTUSIFOLIA, L. [14]; Rate 0.500 kg/ha): 0.0
